The values below come from patent US12692247B2, “Phenyl- and pyridopyrazole derivatives as inhibitors of DDR1” (Redx Pharma Limited, priority 2021, dated 2026).

Experiment [1] concerns the target T1, Recombinant human DDR1 (Homo sapiens, UniProt Q08345).
T1 construct: Recombinant human DDR1 (2.5 nM; aa440-876 containing a GST tag)
As to the kind of experiment: LanthaScreen Eu Kinase Binding Assay, DDR1. Conditions: recombinant human DDR1 (2.5 nM; aa440-876, GST tag), Kinase Tracer 178 5 nM, time-resolved fluorescence, at least two independent replicates; read-out: DDR1 pIC50 (converted). An outline of the steps: (§1)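 GST-tagged kinase domains (DDR1 aa440-876 at 2.5 nM; DDR2 aa427-855 at 1.75 nM) were preincubated 30 min at room temperature with compound in HEPES pH 7.3 buffer. Then 1 nM Eu-anti-GST plus Tracer 178 (5 nM DDR1, 10 nM DDR2) were added; after 60 min, TR-FRET gave IC50 by four-parameter fit, ≥2 replicates.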

In experiment [2] the target is T2, Recombinant human DDR2 (Homo sapiens, UniProt Q16832).
T2 construct: DDR2 (1.75 nM; aa427-855 containing a GST tag)
T2 sequence (Q16832 427-855): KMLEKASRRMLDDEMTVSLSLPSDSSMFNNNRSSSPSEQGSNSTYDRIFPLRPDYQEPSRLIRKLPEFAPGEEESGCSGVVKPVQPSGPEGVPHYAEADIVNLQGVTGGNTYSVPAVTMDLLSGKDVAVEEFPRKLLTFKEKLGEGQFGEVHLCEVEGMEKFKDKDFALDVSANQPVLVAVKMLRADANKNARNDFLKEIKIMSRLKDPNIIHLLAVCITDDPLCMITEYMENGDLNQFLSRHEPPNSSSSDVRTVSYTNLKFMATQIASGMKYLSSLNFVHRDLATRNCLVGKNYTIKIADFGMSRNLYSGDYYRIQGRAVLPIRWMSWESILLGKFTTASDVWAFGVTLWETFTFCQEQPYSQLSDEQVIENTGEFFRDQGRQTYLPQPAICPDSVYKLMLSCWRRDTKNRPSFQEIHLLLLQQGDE
In words: LanthaScreen Eu Kinase Binding Assay, DDR2. The following applies: recombinant human DDR2 (1.75 nM; aa427-855, GST tag), Kinase Tracer 178 10 nM, time-resolved fluorescence, at least two independent replicates; read-out: DDR2 pIC50 (converted). An outline of the steps:
as §1
A general note: Time-resolved FRET reads energy transfer from a long-lived donor to a nearby acceptor.

T1 sequence (Q08345 440-876 isoform Q08345-2): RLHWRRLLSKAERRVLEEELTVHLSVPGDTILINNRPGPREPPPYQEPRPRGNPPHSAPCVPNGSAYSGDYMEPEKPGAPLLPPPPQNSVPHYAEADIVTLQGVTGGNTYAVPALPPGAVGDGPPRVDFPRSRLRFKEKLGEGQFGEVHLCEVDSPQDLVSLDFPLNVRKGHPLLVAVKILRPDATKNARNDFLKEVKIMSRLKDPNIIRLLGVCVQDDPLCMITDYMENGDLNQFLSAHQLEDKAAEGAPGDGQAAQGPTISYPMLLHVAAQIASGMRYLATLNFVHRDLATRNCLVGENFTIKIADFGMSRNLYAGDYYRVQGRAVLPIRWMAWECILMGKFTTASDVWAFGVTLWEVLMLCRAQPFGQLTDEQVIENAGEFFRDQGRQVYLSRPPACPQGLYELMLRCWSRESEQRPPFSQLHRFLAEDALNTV

For `C[C@H](NC(=O)Cn1ccc2cccc(N(C)c3ccc4c(cnn4C)c3)c2c1=O)C(F)(F)F` [Example 143, 2-[8-[methyl-(1-methylindazol-5-yl)amino]-1-oxo-2-isoquinolyl]-N-[(1S)-2,2,2-trifluoro-1-methyl-ethyl]acetamide], the IC50 in experiment [1] was 10 to 100 nM; in experiment [2], 100 to 1000 nM.
For `CN(c1ccc2c(cnn2C)c1)c1cccc2ccn(CC(=O)Nc3cccc(C(F)(F)F)c3)c(=O)c12` [Example 144, 2-[8-[methyl-(1-methylindazol-5-yl)amino]-1-oxo-2-isoquinolyl]-N-[3-(trifluoromethyl)phenyl]acetamide], the values for the IC50 in experiment [1] and in experiment [2] were 10 to 100 nM and 100 to 1000 nM, respectively.
The corresponding values for `CN(C)Cc1cc(NC(=O)Cn2ccc3cccc(Nc4ccc5c(cnn5C)c4)c3c2=O)cc(C(F)(F)F)c1` [Example 154, N-[3-[(dimethylamino)methyl]-5-(trifluoromethyl)phenyl]-2-[8-[(1-methylindazol-5-yl)amino]-1-oxo-2-isoquinolyl]acetamide] are < 10 nM and 10 to 100 nM.
For `Cc1n[nH]c2cc(Nc3cccc4ccn(CC(=O)Nc5cnoc5)c(=O)c34)ccc12` [Example 158, N-isoxazol-4-yl-2-[8-[(3-methyl-1H-indazol-6-yl)amino]-1-oxo-2-isoquinolyl]acetamide] the same measures were 10 to 100 nM and 10 to 100 nM.
For `Cc1n[nH]c2cc(Nc3cccc4ccn(CC(=O)Nc5cccc(C(F)(F)F)c5)c(=O)c34)ccc12` [Example 159, 2-[8-[(3-methyl-1H-indazol-6-yl)amino]-1-oxo-2-isoquinolyl]-N-[3-(trifluoromethyl)phenyl]acetamide] the same measures were 10 to 100 nM and 100 to 1000 nM.
